# “Also recorded” adds a separate entry of the source.
# Legend:
# [1] = system: Human promyelocytic leukemia (HL60) cells; assay: HL-60 differentiation (nitro blue tetrazolium reduction); type: cell-based; settings: for EC50: Homo sapiens, HL-60, HL60 cells, FIG. 2
# Description: Serial dilutions were prepared so that a range of drug concentrations could be tested without changing the final concentration of ethanol (≦0.2%) present in the cell cultures.
# Human promyelocytic leukemia (HL60) cells were grown in RPMI-1640 medium containing 10% fetal bovine serum. The cells were incubated at 37° C. in the presence of 5% CO2.
# HL60 cells were plated at 1.2×10^5 cells/ml. Eighteen hours after plating, cells in duplicate were treated with drug. Four days later, the cells were harvested and a nitro blue tetrazolium reduction assay was performed (Collins et al., 1979; J. Exp. Med. 149:969-974). The percentage of differentiated cells was determined by counting a total of 200 cells and recording the number that contained intracellular black-blue formazan deposits. Verification of differentiation to monocytic cells was determined by measuring phagocytic activity (data not shown).
# [2] = system: 24-hydroxylase (24Ohase) gene promoter; assay: In vitro transcription assay, luciferase reporter in ROS 17/2.8 (bone) cells; type: cell-based; settings: ROS 17/2.8 cells, 24-hydroxylase promoter luciferase; FIG. 3; read-out: EC50, transcriptional activity in bone cells
# Description: In Vitro Transcription Assay
# Transcription activity was measured in ROS 17/2.8 (bone) cells that were stably transfected with a 24-hydroxylase (24Ohase) gene promoter upstream of a luciferase reporter gene (Arbour et al., 1998). Cells were given a range of doses. Sixteen hours after dosing the cells were harvested and luciferase activities were measured using a luminometer.
# RLU=relative luciferase units.
# Sprague-Dawley rats [3] = assay: Bone calcium mobilization (serum calcium); type: in vivo; settings: FIG. 4; for serum calcium value: 7,020 pmol/day for 4 consecutive days, ip, low calcium diet (0.02%)
# Description: (§1) Intestinal Calcium Transport and Bone Calcium Mobilization
# (§2) Male, weanling Sprague-Dawley rats were placed on Diet 11 (0.47% Ca) diet+AEK oil for one week followed by Diet 11 (0.02% Ca)+AEK oil for 3 weeks. The rats were then switched to a diet containing 0.47% Ca for one week followed by two weeks on a diet containing 0.02% Ca. Dose administration began during the last week on 0.02% calcium diet. Four consecutive ip doses were given approximately 24 hours apart. Twenty-four hours after the last dose, blood was collected from the severed neck and the concentration of serum calcium determined as a measure of bone calcium mobilization. The first 10 cm of the intestine was also collected for intestinal calcium transport analysis using the everted gut sac method.
# Sprague-Dawley rats [4] = assay: Intestinal calcium transport (everted gut sac method); type: in vivo; settings: FIG. 5
# Description: as §1, §2
# [5] = biological target: T1, full-length recombinant rat vitamin D receptor (Rattus norvegicus, UniProt P13053)
# T1 sequence (P13053 1-423): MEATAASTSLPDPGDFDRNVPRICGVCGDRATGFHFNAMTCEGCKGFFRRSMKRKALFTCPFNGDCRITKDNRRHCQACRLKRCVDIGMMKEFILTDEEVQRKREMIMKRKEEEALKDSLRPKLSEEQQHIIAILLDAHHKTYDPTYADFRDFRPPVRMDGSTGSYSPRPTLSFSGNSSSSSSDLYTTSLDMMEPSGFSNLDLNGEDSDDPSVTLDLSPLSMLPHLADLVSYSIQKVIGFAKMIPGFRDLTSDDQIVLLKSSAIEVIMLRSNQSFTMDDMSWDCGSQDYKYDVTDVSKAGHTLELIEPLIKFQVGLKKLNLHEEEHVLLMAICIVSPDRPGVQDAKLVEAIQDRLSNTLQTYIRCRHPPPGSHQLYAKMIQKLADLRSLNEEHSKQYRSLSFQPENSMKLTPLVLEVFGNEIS
# Description: Vitamin D Receptor Binding
# Full-length recombinant rat receptor was expressed in E. coli BL21 (DE3) Codon Plus RIL cells and purified to homogeneity using two different column chromatography systems. The first system was a nickel affinity resin that utilizes the C-terminal histidine tag on this protein. The protein that was eluted from this resin was further purified using ion exchange chromatography (S-Sepharose Fast Flow). Aliquots of the purified protein were quick frozen in liquid nitrogen and stored at −80° C. until use. For use in binding assays, the protein was diluted in TEDK50 (50 mM Tris, 1.5 mM EDTA, pH7.4, 5 mM DTT, 150 mM KCl) with 0.1% Chaps detergent.
# Radiolabeled and unlabeled ligands were added to 100 mcl of the diluted protein at a final ethanol concentration of ≦10%, mixed and incubated overnight on ice to reach binding equilibrium. The following day, 100 mcl of hydroxylapatite slurry (50%) was added to each tube and mixed at 10-minute intervals for 30 minutes. The hydroxylapaptite was collected by centrifugation and then washed three times with Tris-EDTA buffer (50 mM Tris, 1.5 mM EDTA, pH 7.4) containing 0.5% Titron X-100. After the final wash, the pellets were transferred to scintillation vials containing 4 ml of Biosafe II scintillation cocktail, mixed and placed in a scintillation counter. Total binding was determined from the tubes containing only radiolabeled ligand.
SMILES,EC50 [1] [nM],EC50 [2] [nM],serum calcium value (Sprague-Dawley rats [3]) [mg/dL],"bone calcium mobilization activity (in words) (Sprague-Dawley rats [3]; in vivo, doses tested)","HL-60 cell differentiation, less active/potent than 1,25(OH)2D3 ([1]; relative to 1,25(OH)2D3)","potency to promote HL60 cell differentiation, less than calcitriol ([1]; relative to calcitriol) [logs]",intestinal calcium transport activity (in words) (Sprague-Dawley rats [4]; 780 pmol/day for 4 consecutive days),"intestinal calcium transport activity in vivo (in words) (Sprague-Dawley rats [4]; in vivo, compared to 1,25-(OH)2D3)",Ki [5] [nM],"VDR affinity, less potent than 1,25-(OH)2D3 ([5]; relative to 1,25-(OH)2D3) [times]","VDR binding diminished as compared to 1α,25-dihydroxyvitamin D3 ([5]; relative to 1α,25-dihydroxyvitamin D3) [fold]",VDR binding affinity lower than the native hormone ([5]; relative to the native hormone)
"C=C1/C(=C\C=C2/CCC[C@]3(C)[C@@H]([C@H](C)CCCC(C)(C)O)CC[C@@H]23)C[C@@H](O)C[C@@H]1O [1,25-(OH)2D3, 1α,25-dihydroxyvitamin D3, reference compound]",3,0.2,7.9,increased serum calcium levels at all the dosages tested,–,–,–,–,–,–,–,–
"C[C@H](CCCC(C)(C)O)C1CCC2/C(=C/C=C3\C[C@@H](O)C4=CCO[C@@H]4C3)CCC[C@@]21C (stereo partly drawn) [B-REV5, 3,2-dihydrofuran-1α,25-dihydroxy-19-nor-vitamin D3]",1000,300,6.1,–,"about 1,000 times",3,"almost the same activity as 1,25-(OH)2D3",significant intestinal calcium transport activity; also recorded: about the same potency,800,~40,~10,approximately 4 orders of magnitude

# Reference: US7648974B1, “19-nor-vitamin D analogs with 3,2-dihydrofuran ring” (Wisconsin Alumni Research Foundation, priority 2008, dated 2010)
